This note sets out measurements from patent publication US20120034288A1, “COMPOSITIONS AND METHODS FOR ENHANCED ATTRACTION OF NOCTUID MOTHS” (priority 2010, published 2012).

Assay [1] deals with Heliothis zea. The assay is described as follows: Heliothis zea Test 1: field trap capture, Hercon pheromone lure with/without enhancer. Format: in vivo. To be noted: for percent increase in Heliothis zea captures: test 1, enhancer added to pheromone lure. The protocol: 12 traps were set in Yazoo City and 10 in Monroe County, Miss. From mid June through mid September trans-2, cis-6-nonadienal, a compound reported from the volatiles of corn and soybean plants was tested. Both treatments used a commercial Heliothis zea pheromone dispenser produced by Hercon. The standard was this lure only, while the enhanced traps also contained a dispenser produced in-house that contained the enhancer.

Assay [2] has as its system Heliothis zea. The assay is described as follows: Heliothis zea Test 2: field trap capture with added enhancer. Format: in vivo. To be noted: Arkansas, enhancer added to pheromone lure. From the text: The percent increase in Heliothis zea captures with the addition of the soybean volatile trans-2,cis-6-nonadienal was 44%, 25%, and 54% respectively for Mississippi and Arkansas in test 1 and in Arkansas in test 2.

On to `CC/C=C\CC/C=C/C=O` [trans-2,cis-6-nonadienal, trans-2, cis-6-nonadienal], for which the “percent increase in Heliothis zea captures” value in assay [1] (Arkansas) came out at 25%; in assay [1] (Mississippi) it was 44%; in assay [2], 54%. Also, the “function as an enhancer for attracting H. zea” value in assay [1] (statement in words) is recorded as “functioned as an enhancer”.
